# Reference: US20130072440A1, “CO-CRYSTALS AND PHARMACEUTICAL FORMULATIONS COMPRISING THE SAME” (VERTEX PHARMACEUTICALS INCORPORATED, priority 2010, published 2013)
# Test: Kinetic solubility in Fed State Simulated Intestinal Fluid (FESSIF)
# Assay type: physicochemical
# Settings: thermodynamic from solid
# Procedure: Kinetic solubility profiles of VX-950 co-crystal fluid bed granules were determined in Fed State Simulated Intestinal Fluid (FESSIF).
# […] of VX-950 co-crystal fluid-bed granules were dissolved in 100 ml of FESSIF.
# The experiment of Example was repeated with 166.51 mg of VX-950 co-crystal fluid-bed granules.
# Kinetic solubility of the following substances or formulations were measured in FESSIF: […]
smiles,measurement,value
CCC[C@H](NC(=O)[C@@H]1[C@H]2CCC[C@H]2CN1C(=O)[C@@H](NC(=O)[C@@H](NC(=O)c1cnccn1)C1CCCCC1)C(C)(C)C)C(=O)C(=O)NC1CC1 [Crystalline VX-950],solubility kinetic at 15 min,5 µg/mL
same,solubility kinetic at 30 min,5 µg/mL
same,solubility kinetic at 45 min,5 µg/mL
same,solubility kinetic at 60 min,4.5 µg/mL
same,solubility kinetic at 90 min,4 µg/mL
same,solubility kinetic at 180 min,4 µg/mL
